Structures are written as SMILES.

GCN2, sequence (Q9P2K8 whole entry): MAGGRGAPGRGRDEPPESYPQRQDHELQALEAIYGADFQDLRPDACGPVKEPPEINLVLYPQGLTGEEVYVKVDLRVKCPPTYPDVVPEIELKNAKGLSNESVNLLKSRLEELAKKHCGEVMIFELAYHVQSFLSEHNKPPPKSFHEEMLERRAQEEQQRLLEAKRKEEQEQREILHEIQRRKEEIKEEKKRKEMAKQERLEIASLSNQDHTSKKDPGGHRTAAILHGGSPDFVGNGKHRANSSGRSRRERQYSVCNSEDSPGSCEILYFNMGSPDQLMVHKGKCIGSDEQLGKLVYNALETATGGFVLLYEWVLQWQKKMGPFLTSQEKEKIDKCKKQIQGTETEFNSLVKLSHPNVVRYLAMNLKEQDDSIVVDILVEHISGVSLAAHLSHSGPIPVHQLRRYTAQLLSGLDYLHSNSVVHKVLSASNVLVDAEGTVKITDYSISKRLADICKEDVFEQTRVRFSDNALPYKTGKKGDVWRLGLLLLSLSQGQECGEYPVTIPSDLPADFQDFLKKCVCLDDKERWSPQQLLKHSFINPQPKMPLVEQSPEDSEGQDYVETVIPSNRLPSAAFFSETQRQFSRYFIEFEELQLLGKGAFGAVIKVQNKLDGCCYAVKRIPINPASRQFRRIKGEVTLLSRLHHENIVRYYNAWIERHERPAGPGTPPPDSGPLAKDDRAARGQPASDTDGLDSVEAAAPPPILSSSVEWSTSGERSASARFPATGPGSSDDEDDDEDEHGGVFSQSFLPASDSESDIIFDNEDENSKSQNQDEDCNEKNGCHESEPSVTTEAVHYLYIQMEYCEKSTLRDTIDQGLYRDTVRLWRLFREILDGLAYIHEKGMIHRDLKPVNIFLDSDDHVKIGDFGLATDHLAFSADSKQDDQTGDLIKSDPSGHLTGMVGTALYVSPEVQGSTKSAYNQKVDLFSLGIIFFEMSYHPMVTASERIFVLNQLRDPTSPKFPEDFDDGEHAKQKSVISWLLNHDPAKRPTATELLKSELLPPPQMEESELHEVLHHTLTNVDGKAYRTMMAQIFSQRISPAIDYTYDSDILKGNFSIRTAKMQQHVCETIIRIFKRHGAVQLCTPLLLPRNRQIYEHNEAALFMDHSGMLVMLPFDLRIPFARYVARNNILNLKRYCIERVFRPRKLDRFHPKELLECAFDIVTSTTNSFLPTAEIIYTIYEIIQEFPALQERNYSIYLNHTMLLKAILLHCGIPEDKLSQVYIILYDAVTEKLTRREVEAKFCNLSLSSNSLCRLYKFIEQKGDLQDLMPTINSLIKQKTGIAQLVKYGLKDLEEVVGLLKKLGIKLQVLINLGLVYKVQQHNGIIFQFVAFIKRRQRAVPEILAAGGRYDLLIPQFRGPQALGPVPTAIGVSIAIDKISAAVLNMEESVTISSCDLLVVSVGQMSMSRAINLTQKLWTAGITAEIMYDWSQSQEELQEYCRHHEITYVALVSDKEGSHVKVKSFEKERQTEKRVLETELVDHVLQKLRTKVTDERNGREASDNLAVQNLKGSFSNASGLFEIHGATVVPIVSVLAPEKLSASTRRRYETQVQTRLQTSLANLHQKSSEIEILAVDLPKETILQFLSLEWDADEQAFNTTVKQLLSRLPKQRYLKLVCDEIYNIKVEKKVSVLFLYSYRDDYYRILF

The assay concerns the target GCN2 (Homo sapiens (Human), UniProt Q9P2K8). The assay can be described thus: GCN2 Biochemical Assay (TR-FRET, GFP-eIF2S1 substrate phosphorylation). The conditions noted are these: read-out: IC50 (GCN2 Inhibitory Activity). The method, then: Experimental Example 1: GCN2 Biochemical Assay
An inhibitory effect of the inventive compound on GCN2 was identified as follows.
384-well (Greiner #784075) (or 1536-well [Greiner #782075]) plates containing 60 nl (or 20 nl for 1536-well) of compound in 100% DMSO (10 concentrations serially diluted 3.16-fold) were prepared. Two copies of plates were used—one for the GCN2 assay and a second for an artifact plate. Working reagents were prepared as follows—reaction buffer: Tris pH 7.5 20 mM, MgCl2 5 mM, DTT 1 mM, Brij-35 0.005%, EGTA 0.5 mM in water; 2× enzyme solution: GCN2 (produced in-house) 1.6 nM in reaction buffer; 2× substrate solution: GFP-eIFS1 (Thermo Fisher Scientific, PV4809) 50 nM, ATP 0.2 mM, tRNA 0.4 mg/ml in reaction buffer; p-GFP-eIF2S1 (artifact) solution: p-GFP-eIFS1 (produced by incubation of 100 nM GFP-eIF2S1 in reaction buffer with 100 uM ATP and 1 nM PERK KD enzyme for 3 hr at room temperature) 2 nM in reaction buffer; 3× stop/antibody solution: p-GFP-EIF2S1 Th-Ab (Thermo Fisher Scientific, PV4816) 6 nM, AZ13933939 3 uM, BSA 3% in reaction buffer. Reagents were loaded onto a liquid dispenser (Certus FLEX, Trajan Scientific and Medical), and 3 ul (1 ul for 1536-well) of 2× enzyme solution, followed by 3 ul (1 ul for 1536-well) of 2× substrate solution was added to the plates. When small numbers of plates were processed, the enzyme solution was added first to all plates, then the valve used for the substrate solution was primed immediately prior to use. Plates were tapped or spun 1 min/1K/RT to ensure proper mixing, followed by incubation at room temperature for 70 mins, covered/stacked in the dark. For the artifact plate, 6 ul of p-GFP-eIF2S1 solution was added prior to adding the stop/antibody solution. 3 ul (1 ul for 1536-well) of 3× stop/antibody solution was added to the plates, followed by a spin-down for 1 min/1K/RT, and incubation for 2-3 hr, sealed or covered with lids in the dark at room temperature. Plates were read on a plate reader (PHERAstar FSX, BMF Labtech) at Ex 340/Em 490/Em 520 nm.
For orientation: IC50 means the midpoint of a concentration-inhibition curve. Take `Cc1cnc(Nc2cc(C)n(C)n2)nc1-c1c[nH]c2c(NC(=O)CN3C[C@@H](F)[C@H](Oc4ccncc4)C3)cccc12` [Example 51, N-(3-(2-((1,5-dimethyl-1H-pyrazol-3-yl)amino)-5-methylpyrimidin-4-yl)-1H-indol-7-yl)-2-((3R,4R)-3-fluoro-4-(pyridin-4-yloxy)pyrrolidin-1-yl)acetamide]: the IC50 lay in the range of 10 to 100 nM.

As for `COC(=O)c1sc2ccccc2c1O[C@H]1CCN(CC(=O)Nc2cccc3c(-c4nc(Nc5cc(C)n(C)n5)ncc4C)c[nH]c23)C1` [Example 106, methyl (S)-3-((1-(2-((3-(2-((1,5-dimethyl-1H-pyrazol-3-yl)amino)-5-methylpyrimidin-4-yl)-1H-indol-7-yl)amino)-2-oxoethyl)pyrrolidin-3-yl)oxy)benzo[b]thiophene-2-carboxylate], the IC50 lay within 100 to 1000 nM.

For `Cc1cnc(Nc2cc(C)n(C)n2)nc1-c1c[nH]c2c(N3Cc4ccc(-c5ccccc5)cc4C3=O)cccc12` [Example 379, 2-(3-(2-((1,5-dimethyl-1H-pyrazol-3-yl)amino)-5-methylpyrimidin-4-yl)-1H-indol-7-yl)-6-phenylisoindolin-1-one], the IC50 lay within 100 to 1000 nM.

As for `Cc1cnc(Nc2cc(C)n(C)n2)nc1-c1c[nH]c2c(NC(=O)CN3CC[C@H](Oc4nccc(N)n4)C3)cccc12` [Example 168, (S)-2-(3-((4-aminopyrimidin-2-yl)oxy)pyrrolidin-1-yl)-N-(3-(2-((1,5-dimethyl-1H-pyrazol-3-yl)amino)-5-methylpyrimidin-4-yl)-1H-indol-7-yl)acetamide], the IC50 was less than 10 nM.

On to `Cc1cnc(Nc2cc(C)n(C)n2)nc1-c1c[nH]c2c(N3Cc4c(cccc4-c4ccnc(N5CCNCC5)c4)C3=O)cccc12` [Example 408, 2-(3-(2-((1,5-dimethyl-1H-pyrazol-3-yl)amino)-5-methylpyrimidin-4-yl)-1H-indol-7-yl)-4-(2-(piperazin-1-yl)pyridin-4-yl)isoindolin-1-one], for which the IC50 is less than 10 nM.

In the case of `Cc1cnc(Nc2cc(C)n(C)n2)nc1-c1c[nH]c2c(NC(=O)CN3CC[C@H](Oc4ccnc(NCc5ccccc5)n4)C3)cccc12` [Example 214, (S)-2-(3-((2-(benzylamino)pyrimidin-4-yl)oxy)pyrrolidin-1-yl)-N-(3-(2-((1,5-dimethyl-1H-pyrazol-3-yl)amino)-5-methylpyrimidin-4-yl)-1H-indol-7-yl)acetamide], the IC50 is less than 10 nM.

In the case of `Cc1cnc(Nc2cc(C)n(C)n2)nc1-c1c[nH]c2c(NC(=O)CN3CC[C@H](Oc4cc(C5=CCOCC5)ncn4)C3)cccc12` [Example 251, (S)-2-(3-((6-(3,6-dihydro-2H-pyran-4-yl)pyrimidin-4-yl)oxy)pyrrolidin-1-yl)-N-(3-(2-((1,5-dimethyl-1H-pyrazol-3-yl)amino)-5-methylpyrimidin-4-yl)-1H-indol-7-yl)acetamide], the IC50 lay within 10 to 100 nM.

Turning to `Cc1cnccc1-c1cccc2c1CN(c1cccc3c(-c4nc(Nc5cc(C)n(C)n5)ncc4C)c[nH]c13)C2=O` [Example 455, 2-(3-(2-((1,5-dimethyl-1H-pyrazol-3-yl)amino)-5-methylpyrimidin-4-yl)-1H-indol-7-yl)-4-(3-methylpyridin-4-yl)isoindolin-1-one], the IC50 is less than 10 nM.

Regarding `Cc1cnc(Nc2cc(C)n(C)n2)nc1-c1c[nH]c2c(NC(=O)CN3CC[C@H](Oc4ccnc(N)c4)C3)cccc12` [Example 90], the IC50 is less than 10 nM.

For `Cc1cnc(Nc2cc(C)n(C)n2)nc1-c1c[nH]c2c(NC(=O)CN3CC[C@H](Oc4cc(F)cc(F)c4)C3)cccc12` [Example 86], the IC50 fell in the range of 100 to 1000 nM.

With `COc1nccc(O[C@H]2CCN(CC(=O)Nc3cccc4c(-c5nc(Nc6cc(C)n(C)n6)ncc5C)c[nH]c34)C2)n1` [Example 194, (S)-N-(3-(2-((1,5-dimethyl-1H-pyrazol-3-yl)amino)-5-methylpyrimidin-4-yl)-1H-indol-7-yl)-2-(3-((2-methoxypyrimidin-4-yl)oxy)pyrrolidin-1-yl)acetamide], the IC50 was less than 10 nM.

For the molecule `Cc1cnc(Nc2cc(C)n(C)n2)nc1-c1c[nH]c2c(NC(=O)CN3CC[C@H](Oc4ncc(C(=O)NC5CC5)o4)C3)cccc12` [Example 126, (S)-N-cyclopropyl-2-((1-(2-((3-(2-((1,5-dimethyl-1H-pyrazol-3-yl)amino)-5-methylpyrimidin-4-yl)-1H-indol-7-yl)amino)-2-oxoethyl)pyrrolidin-3-yl)oxy)oxazole-5-carboxamide], the IC50 lay within 10 to 100 nM.

For the molecule `CCCNc1nccc(O[C@H]2CCN(CC(=O)Nc3cccc4c(-c5nc(Nc6cc(C)n(C)n6)ncc5C)c[nH]c34)C2)n1` [Example 204, (S)-N-(3-(2-((1,5-dimethyl-1H-pyrazol-3-yl)amino)-5-methylpyrimidin-4-yl)-1H-indol-7-yl)-2-(3-((2-(propylamino)pyrimidin-4-yl)oxy)pyrrolidin-1-yl)acetamide], the IC50 was less than 10 nM.

As to `Cc1cnc2c(c1)CN(c1cccc3c(-c4nc(Nc5cc(C)n(C)n5)ncc4C)c[nH]c13)C2=O` [Example 287, 6-(3-(2-((1,5-dimethyl-1H-pyrazol-3-yl)amino)-5-methylpyrimidin-4-yl)-1H-indol-7-yl)-3-methyl-5,6-dihydro-7H-pyrrolo[3,4-b]pyridin-7-one], the IC50 was less than 10 nM.

On to `Cc1cnc(Nc2cc(C)n(C)n2)nc1-c1c[nH]c2c(N3Cc4c(NC(=O)c5cccnc5)cccc4C3=O)cccc12` [Example 298, N-(2-(3-(2-((1,5-dimethyl-1H-pyrazol-3-yl)amino)-5-methylpyrimidin-4-yl)-1H-indol-7-yl)-1-oxoisoindolin-4-yl)nicotinamide], for which the IC50 is less than 10 nM.

Take `Cc1cnc(Nc2cc(C)n(C)n2)nc1-c1c[nH]c2c(N3Cc4c(cccc4-c4cc(N5CCN(C)CC5)ccn4)C3=O)cccc12` [Example 423, 2-(3-(2-((1,5-dimethyl-1H-pyrazol-3-yl)amino)-5-methylpyrimidin-4-yl)-1H-indol-7-yl)-4-(4-(4-methylpiperazin-1-yl)pyridin-2-yl)isoindolin-1-one]: the IC50 was less than 10 nM.

For `Cc1cnc(Nc2cc(C)n(C)n2)nc1-c1c[nH]c2c(NC(=O)CN3CC[C@@H](C(=O)N4CCSCC4)C3)cccc12` [Example 68, (R)-N-(3-(2-((1,5-dimethyl-1H-pyrazol-3-yl)amino)-5-methylpyrimidin-4-yl)-1H-indol-7-yl)-2-(3-(thiomorpholine-4-carbonyl)pyrrolidin-1-yl)acetamide], the IC50 lay in the range of 10 to 100 nM.

For the molecule `Cc1cnc(Nc2cc(C)n(C)n2)nc1-c1c[nH]c2c(NC(=O)CN3CCC(CC#N)C3)cccc12` (centres unmarked) [Example 45, 2-(3-(cyanomethyl)pyrrolidin-1-yl)-N-(3-(2-((1,5-dimethyl-1H-pyrazol-3-yl)amino)-5-methylpyrimidin-4-yl)-1H-indol-7-yl)acetamide], the IC50 lay within 100 to 1000 nM.

In the case of `Cc1cnc(Nc2cc(C)n(C)n2)nc1-c1c[nH]c2c(NC(=O)CN3CC[C@H](Oc4cc(F)nc(NC5CC5)n4)C3)cccc12` [Example 234, (S)-2-(3-((2-(cyclopropylamino)-6-fluoropyrimidin-4-yl)oxy)pyrrolidin-1-yl)-N-(3-(2-((1,5-dimethyl-1H-pyrazol-3-yl)amino)-5-methylpyrimidin-4-yl)-1H-indol-7-yl)acetamide], the IC50 was less than 10 nM.

Take `COC(=O)C1CN(CC(=O)Nc2cccc3c(-c4nc(Nc5cc(C)n(C)n5)ncc4C)c[nH]c23)C1` [Example 31, methyl 1-(2-((3-(2-((1,5-dimethyl-1H-pyrazol-3-yl)amino)-5-methylpyrimidin-4-yl)-1H-indol-7-yl)amino)-2-oxoethyl)azetidine-3-carboxylate]: the IC50 was 10 to 100 nM.

Regarding `Cc1cnc(Nc2cc(C)n(C)n2)nc1-c1c[nH]c2c(N3Cc4c(NC(=O)C5(C)CCOCC5)cccc4C3=O)cccc12` [Example 328, N-(2-(3-(2-((1,5-dimethyl-1H-pyrazol-3-yl)amino)-5-methylpyrimidin-4-yl)-1H-indol-7-yl)-1-oxoisoindolin-4-yl)-4-methyltetrahydro-2H-pyran-4-carboxamide], the IC50 was less than 10 nM.

Consider `COC(=O)[C@@H]1C[C@H](Oc2ccnc(NC3CC3)n2)CN1CC(=O)Nc1cccc2c(-c3nc(Nc4cc(C)n(C)n4)ncc3C)c[nH]c12` [Example 55, methyl (2S,4S)-4-((2-(cyclopropylamino)pyrimidin-4-yl)oxy)-1-(2-((3-(2-((1,5-dimethyl-1H-pyrazol-3-yl)amino)-5-methylpyrimidin-4-yl)-1H-indol-7-yl)amino)-2-oxoethyl)pyrrolidine-2-carboxylate], for which the IC50 is less than 10 nM.

As to `Cc1cnc(Nc2cc(C)n(C)n2)nc1-c1c[nH]c2c(NC(=O)C(=O)N3CCC(Oc4ccccn4)C3)cccc12` (centres unmarked) [Example 19], the IC50 fell in the range of 10 to 100 nM.

(Values after patent publication US20240025884A1 (Dong-A ST Co., Ltd., priority 2022, published 2024).)
